Results published in patent US6689754B1, “Heterocyclic glycyl β-alanine derivatives” (G. D. Searle & Co., priority 1998, dated 2004).
Structures can show the parent of a compound that is named as a salt.

Key:
[1] = molecular target: T1, Human fibrinogen receptor IIb/IIIa (Homo sapiens, UniProt P05106+P08514); assay: Purified IIb/IIIa receptor assay: solid phase receptor assay, competition with biotinylated vitronectin; format: binding; details: 1 nM biotinylated vitronectin
T1 construct: Human fibrinogen receptor ([…]) was purified from outdated platelets; from tissue; host or cells: outdated human platelets
Description: Purified IIb/IIIa Receptor Assay
Human fibrinogen receptor ([…]) was purified from outdated platelets. (Pytela, R., Pierschbacher, M. D., Argraves, S., Suzuki, S., and Rouslahti, E. “Arginine-Glycine-Aspartic acid adhesion receptors”, Methods in Enzymology 144(1987):475-489.) Human vitronectin was purified from fresh frozen plasma as described in Yatohgo, T., Izumi, M., Kashiwagi, H., and Hayashi, M., “Novel purification of vitronectin from human plasma by heparin affinity chromatography,” Cell Structure and Function 13(1988):281-292. Biotinylated human vitronectin was prepared by coupling NHS-biotin from Pierce Chemical Company (Rockford, Ill.) to purified vitronectin as previously described. (Charo, I. F., Nannizzi, L., Phillips, D. R., Hsu, M. A., Scarborough, R. M., “Inhibition of fibrinogen binding to GP IIb/IIIa by a GP IIIa peptide”, J. Biol. Chem. 266(3)(1991): 1415-1421.) Assay buffer, OPD substrate tablets, and RIA grade BSA were obtained from Sigma (St. Louis, Mo.). Anti-biotin antibody was obtained from Calbiochem (La Jolla, Calif.). Linbro microtiter plates were obtained from Flow Labs (McLean, Vs.). ADP reagent was obtained from Sigma (St. Louis, Mo.).
This assay is essentially the same reported in Niiya, K., Hodson, E., Bader, R., Byers-Ward, V. Koziol, J. A., Plow, E. F. and Ruggeri, Z. M., “Increased surface expression of the membrane glycoprotein IIb/IIIa complex induced by platelet activation: Relationships to the binding of fibrinogen and platelet aggregation”, Blood 70(1987):475-483. The purified human fibrinogen receptor ([…]) was diluted from stock solutions to 1.0 μg/mL in Tris-buffered saline containing 1.0 mM Ca^++, Mg^++, and Mn^++, pH 7.4 (TBS^+++). The diluted receptor was immediately transferred to Linbro microtiter plates at 100 μL/well (100 ng receptor/well). The plates were sealed and incubated overnight at 4° C. to allow the receptor to bind to the wells. All remaining Steps were at room temperature. The assay plates were emptied and 200 μL of 1% RIA grade BSA in TBS^+++ (TBS^+++/BSA) were added to block exposed plastic surfaces. Following a 2 hour incubation, the assay plates were washed with TBS^+++ using a 96 well plate washer. Logarithmic serial dilution of the test compound and controls were made starting at a stock concentration of 2 mM and using 2 nM biotinylated vitronectin in TBS^+++/BSA as the diluent. This premixing of labeled ligand with test (or control) ligand, and subsequent transfer of 50 μL aliquots to the assay plate was carried out with a CETUS Propette robot; the final concentration of the labeled ligand was 1 nM and the highest concentration of test compound was 1.0×10^−4 M. The competition occurred for two hours after which all wells were washed with a plate washer as before. Affinity purified horseradish peroxidase labeled goat anti-biotin antibody was diluted 1:3000 in TBS^+++/BSA and 125 μL were added to each well. After 30 minutes, the plates were washed and incubated with […] substrate in 100 mM/L citrate buffer, pH 5.0. The plate was read with a microtiter plate reader at a wavelength of 450 nm and when the maximum-binding control wells reached an absorbance of about 1.0, the final A450 were recorded for analysis. The data were analyzed using a macro written for use with the EXCELJ spreadsheet program. The mean, standard deviation, and % CV were determined for duplicate concentrations. The mean A450 values were normalized to the mean of four maximum-binding controls (no competitor added)(B-MAX). The normalized values were subjected to a four parameter curve fit algorithm, [Robard et al., Int. Atomic Energy Agency.

[2] = molecular target: T2, Human vitronectin receptor (αvβ3) (Homo sapiens, UniProt P05106+P06756); assay: Vitronectin adhesion assay: solid phase receptor assay, competition with biotinylated vitronectin; format: binding; details: purified human vitronectin receptor; 1 nM biotinylated vitronectin
T2 construct: Human vitronectin receptor (αvβ3) was purified from human placenta; from tissue; host or cells: human placenta
Protocol: Vitronectin Adhesion Assay
Human vitronectin receptor (αvβ3) was purified from human placenta as previously described [Pytela et al., Methods in Enzymology, 144:475-489 (1987)]. Human vitronectin was purified from fresh frozen plasma as previously described [Yatohgo et al., Cell Structure and Function, 13:281-292 (1988)]. Biotinylated human vitronectin was prepared by coupling NHS-biotin from Pierce Chemical Company (Rockford, Ill.) to purified vitronectin as previously described [Charo et al., J. Biol. Chem., 266(3):1415-1421 (1991)]. Assay buffer, OPD substrate tablets, and RIA grade BSA were obtained from Sigma (St. Louis, Mo.). Anti-biotin antibody was obtained from Calbiochem (La Jolla, Calif.). Linbro microtiter plates were obtained from Flow Labs (McLean, Va.). ADP reagent was obtained from Sigma (St. Louis, Mo.).
This assay was essentially the same as previously reported [Niiya et al., Blood, 70:475-483 (1987)]. The purified human vitronectin receptor (αvβ3) was diluted from stock solutions to 1.0 μg/mL in Tris-buffered saline containing 1.0 mM Ca^++, Mg^++, and Mn^++, pH 7.4 (TBS^+++). The diluted receptor was immediately transferred to Linbro microtiter plates at 100 μL/well (100 ng receptor/well). The plates were sealed and incubated overnight at 4° C. to allow the receptor to bind to the wells. All remaining steps were at room temperature. The assay plates were emptied and 200 μL of 1% RIA grade BSA in TBS^+++ (TBS^+++/BSA) were added to block exposed plastic surfaces. Following a 2 hour incubation, the assay plates were washed with TBS^+++ using a 96 well plate washer. Logarithmic serial dilution of the test compound and controls were made starting at a stock concentration of 2 mM and using 2 nM biotinylated vitronectin in TBS^+++/BSA as the diluent. This premixing of labeled ligand with test (or control) ligand, and subsequent transfer of 50 μL aliquots to the assay plate was carried out with a CETUS Propette robot; the final concentration of the labeled ligand was 1 nM and the highest concentration of test compound was 1.0×10^−4 M. The competition occurred for two hours after which all wells were washed with a plate washer as before. Affinity purified horseradish peroxidase labeled goat anti-biotin antibody was diluted 1:3000 in TBS^+++/BSA and 125 μL were added to each well. After 30 minutes, the plates were washed and incubated with OPD/H2O2 substrate in 100 mM/L Citrate buffer, pH 5.0. The plate was read with a microtiter plate reader at a wavelength of 450 nm and when the maximum-binding control wells reached an absorbance of about 1.0, the final A450 were recorded for analysis. The data were analyzed using a macro written for use with the EXCELJ spreadsheet program. The mean, standard deviation, and % CV were determined for duplicate concentrations. The mean A450 values were normalized to the mean of four maximum-binding controls (no competitor added)(B-MAX). The normalized values were subjected to a four parameter curve fit algorithm [Rodbard et al., Int.

Row | SMILES | IC50 [1] | IC50 [2]
1 | O=C(O)C[C@H](NC(=O)CNC(=O)c1c[nH]c(=O)c(NC2=NCC(O)CN2)c1)c1cc(Cl)cc(Cl)c1O (stereo partly drawn) [Example 21, (3S)-N-[[1,6-dihydro-6-oxo-5-[(1,4,5,6-tetrahydro-5-hydroxy-2-pyrimidinyl)amino]-3-pyridinyl]carbonyl]glycyl-3-(3,5-dichloro-2-hydroxyphenyl)-β-alanine, trifluoroacetate salt] | 551 nM | 0.2 nM
2 | COc1ncc(N=C2NCCN2)cc1C(=O)NCC(=O)NC(CC(=O)O)c1cc(Cl)cc(Cl)c1O (stereo not drawn) [Example 22, N-[[(4,5,-dihydro-1H-imidazol-2-yl)amino]-2-methoxy-3-pyridinyl]carbonyl]glycyl-3-(3,5-dichloro-2-hydroxyphenyl)-β-alanine, (trifluoroacetate) salt] | 1710 nM | 6.96 nM
3 | O=C(O)CC(NC(=O)CNC(=O)c1cc(N=C2NCCN2)c[nH]c1=O)c1cc(Cl)cc(Cl)c1O (stereo not drawn) [Example 23, N-[[5-(4,5,-dihydro-1H-imidazol-2-yl)amino]-1,2-dihydro-2-oxo-3-pyridinyl]-carbonyl]glycyl-3-(3,5-dichloro-2-hydroxyphenyl)-β-alanine, (trifluoroacetate) salt] | 10100 nM | 3600 nM
4 | Cn1nc(C(=O)NCC(=O)NC(CC(=O)O)c2cc(Cl)cc(Cl)c2O)cc1NC1=NCCN1 (stereo not drawn) [Example 24, N-[[(4,5-dihydro-1H-imidazol-2-yl)amino]-1-methyl-1H-pyrazol-3yl]carbonyl]glycyl-3-(3,5-dichloro-2-hydroxyphenyl)-β-alanine, (trifluoroacetate) salt] | 15800 nM | 91200 nM
5 | O=C(O)CC(NC(=O)CNC(=O)c1cc(NC2=NCCN2)[nH]n1)c1cc(Cl)cc(Cl)c1O (stereo not drawn) [Example 25, N-[[5-[(4,5-dihydro-1H-imidazol-2-yl)amino]-1H-pyrazol-3-yl]carbonyl]-glycyl-3-(3,5-dichloro-2-hydroxyphenyl)-β-alanine, (trifluoroacetate) salt] | 3910 nM | 1870 nM
6 | O=C(O)C[C@H](NC(=O)CNC(=O)c1cncc(NC2=NCC(O)CN2)c1)c1cc(Br)cc(I)c1O (some centres unmarked) [Example 26] | 831 nM | 0.71 nM
7 | COc1ncc(C(=O)NCC(=O)N[C@@H](CC(=O)O)c2cc(Cl)cc(Cl)c2O)cc1NC1=NCC(O)CN1 (some centres unmarked) [Example 27] | 482 nM | 0.26 nM
8 | COCCOCn1cc(C(=O)NCC(=O)NC(CC(=O)O)c2cc(Br)cc(Br)c2O)cc(NC2=NCC(O)CN2)c1=O (centres unmarked) [Example 28] | 984 nM | 0.43 nM
9 | O=C(O)CC(NC(=O)CNC(=O)c1c[nH]c(=O)c(NC2=NCC(O)CN2)c1)c1cc(Br)cc(Br)c1O (centres unmarked) [Example 29] | 1380 nM | 0.46 nM
10 | COc1cc(NC2=NCC(O)CN2)nc(C(=O)NCC(=O)N[C@@H](CC(=O)O)c2cc(Cl)cc(Br)c2O)c1 (some centres unmarked) [Example 30] | 29.5 nM | 155 nM
11 | O=C(O)C[C@H](NC(=O)CNC(=O)c1cc(=O)cc(NC2=NCC(O)CN2)[nH]1)c1cc(Cl)cc(Br)c1O (some centres unmarked) [Example 31] | 1800 nM | 3940 nM
12 | O=C(O)CC(NC(=O)CNC(=O)c1cncc(NC2=NCC(O)CN2)c1)c1cc(Cl)cc(Br)c1O (centres unmarked) [Example 32] | 49 nM | 2.1 nM
13 | O=C(O)C[C@H](NC(=O)CNC(=O)c1c[nH]c(=O)c(NC2=NCC(O)CN2)c1)c1cc(Cl)cc(Br)c1O (some centres unmarked) [Example 33] | 520 nM | 0.2 nM
14 | O=C(O)C[C@H](NC(=O)CNC(=O)c1c[nH]c(=O)c(NC2=NCC(O)CN2)c1)c1cc(Br)cc(Cl)c1O (some centres unmarked) [Example 34] | 1200 nM | 0.34 nM
15 | O=C(O)C[C@H](NC(=O)CNC(=O)c1c[nH]c(=O)c(NC2=NCC(O)CN2)c1)c1cc(Br)cc(Br)c1 (some centres unmarked) [Example 35] | 340 nM | 0.14 nM
16 | O=C(O)C[C@H](NC(=O)CNC(=O)c1c[nH]c(=O)c(NC2=NCCN2)c1)c1cc(Br)cc(Br)c1O [Example 36] | 970 nM | 1.13 nM
17 | O=C(O)C[C@H](NC(=O)CNC(=O)c1csc(NC2=NCC(O)CN2)c1)c1cc(Cl)cc(Cl)c1O (some centres unmarked) [Example 37] | 267 nM | 63.8 nM
18 | Cn1cc(NC2=NCC(O)CN2)cc1C(=O)NCC(=O)N[C@@H](CC(=O)O)c1cc(Cl)cc(Cl)c1O (some centres unmarked) [Example 38] | 115 nM | 278 nM
19 | O=C(O)C[C@H](NC(=O)CNC(=O)c1cscc1CNC1=NCC(O)CN1)c1cc(Cl)cc(Cl)c1O (some centres unmarked) [Example 39] | 2460 nM | 1920 nM
20 | O=C(O)C[C@@H](NC(=O)CNC(=O)c1c[nH]c(=O)c(NC2=NCC(O)CN2)c1)c1cc(Cl)cc(Cl)c1O (some centres unmarked) [Example 41] | 35400 nM | 10.2 nM
21 | O=C(O)C[C@H](NC(=O)CNC(=O)c1cc(NC2=NCC(O)CN2)[nH]c(=O)c1)c1cc(Cl)cc(Cl)c1O (some centres unmarked) [Example 42] | 5950 nM | 3.1 nM
22 | O=C(O)C[C@H](NC(=O)CNC(=O)c1cc(NC2=NCC(O)CN2)[nH]c(=O)c1)c1cc(Cl)cc(Br)c1O (some centres unmarked) [Example 43] | 7530 nM | 6.5 nM
23 | Nc1ncc(C(=O)NCC(=O)NC(CC(=O)O)c2cc(Cl)cc(Cl)c2O)cc1NC1=NCC(O)CN1 (centres unmarked) [Example 44] | 1060 nM | 42.1 nM
24 | O=C(O)C[C@H](NC(=O)CNC(=O)c1sccc1CNC1=NCC(O)CN1)c1cc(Cl)cc(Cl)c1O (some centres unmarked) [Example 45] | 1680 nM | 1090 nM
25 | COCCN/C(N)=N/c1cc(C(=O)NCC(=O)N[C@@H](CC(=O)O)c2cc(Cl)cc(Cl)c2O)c[nH]c1=O [Example 46] | 2690 nM | 1.97 nM
